# From US10780092B2, “Fused pyrazine derivatives useful as soluble guanylate cyclase stimulators” (Merck Sharp & Dohme Corp., priority 2016, dated 2020)
# What was measured:
# [1] = biological target: human recombinant sGC enzyme (Homo sapiens (Human), UniProt Q02108+Q02153); assay: SEC competition binding assay with [3H] Compound B radioligand; settings: displacement of 1.6 nM [3H] Compound B, 24 h at 37° C.
# In short: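 Recombinant human sGC incubated with 1.6 nM [3H] Compound B and test compounds for 24 h at 37° C. Buffer: 50 mM triethanolamine pH 7.4, 3 mM MgCl2, 0.025% BSA, 2 mM DTT, 300 μM DETA/NO, 400 μM GTP, 1% DMSO. Bound ligand separated by gel filtration and counted by scintillation; non-specific binding with 1 μM Compound B; Ki from one-site fit.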
# sGC α1/β1 heterodimer = sGC α1/β1 heterodimer (Homo sapiens (Human), UniProt Q02108+Q02153); assay: Cell-based sGC functional assay (CASA assay), cGMP by HTRF; settings: CHO-K1/sGC cells; for Emax: CHO-K1, cGMP production as percentage of maximum of compound A (set to 100%), read-out: % Activation; for EC50: inflection point of cGMP production, 4P fit, read-out: IP; for % Activation: cGMP production as percentage of maximum of compound A (set to 100%)
# In short: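 CHO-K1 cells stably expressing human sGC α1/β1, with 0.5 mM IBMX, pre-incubated ±1 μM DETA-NO 30 min at 25° C, then compound 1 hr at 37° C (2.5% DMSO). cGMP by HTRF; activation as % of reference activator maximum, 4P fit giving inflection point and maximum […].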
SMILES,Ki [1] [nM],Emax (sGC α1/β1 heterodimer) [%],EC50 (sGC α1/β1 heterodimer) [nM],% Activation (sGC α1/β1 heterodimer) [%]
"CC1(c2cc(O)c(C#N)c(F)c2)C(=O)Nc2nc(-c3cn4ncnc4c(Cc4cc(F)cc(F)c4)n3)nc(N)c21 (stereo not drawn) [Example 27-B, 4-(4-Amino-2-{8-[(3,5-difluorophenyl)methyl]-[1,2,4]triazolo[1,5-a]pyrazin-6-yl}-5-methyl-6-oxo-6,7-dihydro-5H-pyrrolo[2,3-d]pyrimidin-5-yl)-2-fluoro-6-hydroxybenzonitrile]",0.28,94,489,–
"CC1CCC(Cc2nc(-c3nc(N)c4c(n3)NC(=O)C4(C)c3ccc(O)c(Cl)c3)cn3ccnc23)CC1 (single isomer, unassigned) [Example 120-BB, 4-Amino-5-(3-chloro-4-hydroxyphenyl)-5-methyl-2-{8-[(4-methylcyclo-hexyl)methyl]imidazo-[1,2-a]pyrazin-6-yl}-5,7-dihydro-6H-pyrrolo-[2,3-d]pyrimidin-6-one]",3.79,–,39,121
"CC1(c2cc(O)c(Cl)cn2)C(=O)Nc2nc(-c3cn4ccnc4c(Cc4ccc(F)cc4)n3)nc(N)c21 (stereo not drawn) [Example 92-B, 4-Amino-5-(5-chloro-4-hydroxypyridin-2-yl)-2-{8-[(4-fluorophenyl)methyl]imidazo[1,2-a]pyrazin-6-yl}-5-methyl-5,7-dihydro-6H-pyrrolo[2,3-d]pyrimidin-6-one]",0.729,104,2860,–
"CC1(c2ccc(Cl)c(O)c2)C(=O)Nc2nc(-c3cn4ccnc4c(Cc4ccc(F)cc4F)n3)nc(N)c21 (stereo not drawn) [Example 91-A, 4-Amino-5-(4-chloro-3-hydroxyphenyl)-2-{8-[(2,4-difluorophenyl)methyl]imidazo[1,2-a]pyrazin-6-yl}-5-methyl-5,7-dihydro-6H-pyrrolo[2,3-d]pyrimidin-6-one]",0.199,141,75,–
"CC1(c2cccc(O)c2)C(=O)Nc2nc(-c3cn4ccnc4c(Cc4cccc(F)c4)n3)nc(N)c21 (stereo not drawn) [Example 121-B, 4-Amino-2-{8-[(3-fluorophenyl)methyl]imidazo[1,2-a]pyrazin-6-yl}-5-(3-hydroxyphenyl)-5-methyl-5,7-dihydro-6H-pyrrolo[2,3-d]pyrimidin-6-one]",0.382,120,369,–
"CC1(c2ccc(Cl)c(O)c2)C(=O)Nc2nc(-c3cn4ccnc4c(Cc4cccc(F)c4)n3)nc(NCC(O)C(F)(F)F)c21 (stereo not drawn) [Example 131-AB, 5-(4-Chloro-3-hydroxyphenyl)-2-{8-[(3-fluorophenyl)methyl]imidazo[1,2-a]pyrazin-6-yl}-5-methyl-4-[(3,3,3-trifluoro-2-hydroxypropyl)amino]-5,7-dihydro-6H-pyrrolo[2,3-d]pyrimidin-6-one]",0.347,–,292,96
"CC(C)CCc1nc(-c2nc(N)c3c(n2)NC(=O)C3(C)c2cc(O)c(Cl)c(F)c2)cn2ccnc12 (stereo not drawn) [Example 32-B, 4-Amino-5-(4-chloro-3-fluoro-5-hydroxyphenyl)-2-(8-isopentylimidazo[1,2-a]pyrazin-6-yl)-5-methyl-5,7-dihydro-6H-pyrrolo[2,3-d]pyrimidin-6-one]",0.306,107,648,–
"CC1(c2cccc(O)c2)C(=O)Nc2nc(-c3cn4ccnc4c(Cc4ccc(F)cc4)n3)nc(N3CCC(F)(F)CC3)c21 (stereo not drawn) [Example 135-B, 4-(4,4-Difluoropiperidin-1-yl)-2-{8-[(4-fluoro-phenyl)methyl]imidazo-[1,2-a]-pyrazin-6-yl}-5-(3-hydroxyphenyl)-5-methyl-5,7-dihydro-6H-pyrrolo[2,3-d]pyrimidin-6-one]",4.01,103,966,–
"CC1(c2ccc(O)c(F)c2)C(=O)Nc2nc(-c3cn4ncnc4c(CCC(F)(F)C(F)(F)F)n3)nc(N)c21 (racemic) [Example 116-B, 4-Amino-5-(3-fluoro-4-hydroxyphenyl)-5-methyl-2-(8-(3,3,4,4,4-pentafluorobutyl)-[1,2,4]triazolo[1,5-a]pyrazin-6-yl)-5,7-dihydro-6H-pyrrolo-[2,3-d]pyrimidin-6-one]",6.37,137,95,–
"CC1(c2ccc(O)cc2)C(=O)Nc2nc(-c3cn4ccnc4c(CCC(F)(F)C(F)(F)F)n3)nc(N)c21 (stereo not drawn) [Example 81-B, 4-Amino-5-(4-hydroxyphenyl)-5-methyl-2-(8-(3,3,4,4,4-pentafluorobutyl)imidazo[1,2-a]pyrazin-6-yl)-5,7-dihydro-6H-pyrrolo[2,3-d]pyrimidin-6-one]",14,131,352,–
"CC1(c2cccc(O)c2)C(=O)Nc2nc(-c3cn4ccnc4c(CCC4CCCCC4)n3)nc(N)c21 (stereo not drawn) [Example 83-B, 4-Amino-2-(8-(2-cyclohexylethyl)imidazo[1,2-a]pyrazin-6-yl)-5-(3-hydroxyphenyl)-5-methyl-5,7-dihydro-6H-pyrrolo[2,3-d]pyrimidin-6-one]",5.12,109,222,–

# The remaining lines, values ahead:
Ki [1] [nM],Emax (sGC α1/β1 heterodimer) [%],EC50 (sGC α1/β1 heterodimer) [nM],% Activation (sGC α1/β1 heterodimer) [%],SMILES
0.509,54,583,–,"CC1(c2cc(O)c(C#N)c(Cl)c2)C(=O)Nc2nc(-c3cn4ncnc4c(Cc4ccccc4F)n3)nc(N)c21 (stereo not drawn) [Example 149-A, 4-(4-amino-2-{8-(2-fluorobenzyl)-[1,2,4]-triazolo[1,5-a]pyrazin-6-yl}-5-methyl-6-oxo-6,7-dihydro-5H-pyrrolo-[2,3-d]pyrimidin-5-yl)-2-chloro-6-hydroxy-benzonitrile]"
0.333,91,2680,–,"CC1(c2cc(O)c(C#N)c(Cl)c2)C(=O)Nc2nc(-c3cn4ccnc4c(Cc4cccc(F)c4)n3)nc(N)c21 (stereo not drawn) [Example 144-A, 4-(4-amino-2-{8-(3-fluorobenzyl)imidazo-[1,2-a]pyrazin-6-yl}-5-methyl-6-oxo-6,7-dihydro-5H-pyrrolo-[2,3-d]pyrimidin-5-yl)-2-chloro-6-hydroxy-benzonitrile]"
0.989,96,4120,–,"CC1(c2cc(O)c(C#N)c(Cl)c2)C(=O)Nc2nc(-c3cn4ncnc4c(CC4CCCCC4)n3)nc(N)c21 (stereo not drawn) [Example 150-A, 4-(4-amino-2-{8-(cyclohexylmethyl)-[1,2,4]triazolo[1,5-a]-pyrazin-6-yl}-5-methyl-6-oxo-6,7-dihydro-5H-pyrrolo-[2,3-d]pyrimidin-5-yl)-2-chloro-6-hydroxy-benzonitrile]"
0.905,102,1200,–,"CC1(c2cc(O)c(C(F)(F)F)cn2)C(=O)Nc2nc(-c3cn4ccnc4c(CC4CCCCC4)n3)nc(N)c21 (stereo not drawn) [Example 147-B, 4-amino-2-{8-(cyclohexylmethyl)-imidazo[1,2-a]pyrazin-6-yl}-5-(4-hydroxy-5-(trifluoromethyl)pyridin-2-yl)-5-methyl-5,7-dihydro-6H-pyrrolo-[2,3-d]pyrimidin-6-one]"
0.261,105,242,–,"CC1(c2cc(O)c(Cl)cn2)C(=O)Nc2nc(-c3cn4ncnc4c(Cc4ccccc4F)n3)nc(N)c21 (stereo not drawn) [Example 148-B, 4-amino-5-(5-chloro-4-hydroxypyridin-2-yl)-2-{8-(2-fluorobenzyl)-[1,2,4]triazolo[1,5-a]-pyrazin-6-yl}-5-methyl-5,7-dihydro-6H-pyrrolo-[2,3-c]pyrimidin-6-one]"
